# According to patent US9884821B2, “N1-cyclic amine-N5-substituted biguanide derivatives, methods of preparing the same and pharmaceutical composition comprising the same” (IMMUNOMET THERAPEUTICS INC., priority 2013, dated 2018):
# Values joined by “and” are separate entries in the source; they are usually repeats but may differ in a detail not shown here. Identical values can stand only once. Counter-ions that a name gives are not always drawn.
# How the values were obtained:
# AMPK = AMPK activation effect (AMPK [pT172] ELISA) in MCF7 cells; type: cell-based, human; details: 24 hours; for AMPK activation effect (%) 10 μM / AMPK activation effect (%) 50 μM / AMPK activation effect (%) 5 μM: AMPKα Thr172 phosphorylation relative to untreated cells; for AC150: concentration at which AMPK activation reached 150%
# Experimental: ELISA kit (Invitrogen, Catalog No. KH00651).
# MCF7 cells were cultured in a DMEM medium supplemented with 10% fatal bovine serum (commercially available from Gibco Life Technologies (US)). Thereafter, the cultured MCF7 cells were put into a 6-well plate with approximately 5×10^5 cells per well, and cultured in an incubator supplied with 5% CO2. Culture media were treated with the derivatives synthesized in the Examples at concentrations of 5, 10 and 50 uM, and then cultured for 24 hours. […] Subsequently, the cells were lysed according to a method presented in the operation manual of the AMPK [pT172] ELISA kit, and 20 μg of a cell lysate was then yielded through protein assay. Thereafter, the AMPK activation effect was obtained by determining a degree of phosphorylation of a 172nd threonine residue (Thr172) of the AMPKα from the cell lysate according to the method presented in the operation manual of the AMPK [pT172] ELISA kit.
# HCT116 cells = test: Effect of inhibiting cancer cell proliferation (MTT) in HCT116 cells; type: cell-based, human; details: for GI50 / inhibition at 100 µM / inhibition at 25 µM: Homo sapiens, HCT-116, 48 h; for inhibition at 100 µM: read-out: Cell growth inhibition (%) at 100 μM; for inhibition at 25 µM: read-out: Cell growth inhibition (%) at 25 μM
# From the text: HCT116 cells derived from human colorectal cancer were used, and an effect of inhibiting cancer cell proliferation of the biguanide derivative was confirmed by measuring a concentration value (cell growth inhibition concentration, GIC50) at which cell growth was inhibited by 50% using a 3-(4,5-dimethylthiazol-2-yl)-2,5-diphenyltetrazolium bromide (MTT) reagent.
# First, HCT116 cells (purchased from the KCLB) were put on a 96-well plate and cultured in a DMEM medium supplemented with 10% fatal bovine serum (commercially available from Gibco Life Technologies (US)) for 16 hours so that approximately 5,000 cells were counted in each well. Subsequently, to obtain the GIC50 value of each compound, the culture media were treated with 100 μM, 25 μM, 6.25 μM, 1.56 μM or 0.39 μM of the compound, and then cultured for 48 hours. In order to determine whether the cells survived after treatment with the compounds, MTT (commercially available from AMRESCO (US)) was added to the culture media which were then cultured for another 3 hours. Formed formazane crystals were dissolved using dimethyl sulfoxide (DMSO) and the absorbance of the resulting solution was measured at 560 nm. After the 48-hour culture, a ratio of a living cell count on a well plate treated with the compounds synthesized in the Examples to a cell count cultured on a well plate not treated with the compound was indicated as cell viability (%) according to the concentration of each treated compound. The cell viability (%) was used to plot a cell viability curve graph and calculate a concentration (GIC50) value of the compound at which the growth was inhibited by 50%, thereby confirming the inhibition effect of cancer cell proliferation.
SMILES,GI50 (HCT116 cells),AMPK activation effect (%) 10 μM (AMPK),AMPK activation effect (%) 50 μM (AMPK),AC150 (AMPK),inhibition at 100 µM (HCT116 cells; 100 μM),AMPK activation effect (%) 5 μM (AMPK),inhibition at 25 µM (HCT116 cells),"Cell growth inhibition (%) at 100 μM (HCT116 cells; 100 μM, 48 hours)"
"Cl.N=C(NCc1ccc(OC(F)(F)F)cc1)NC(=N)N1CC=CCC1 [Example 54, N1-1,2,3,6-tetrahydropyridine-N5-(4-trifluoromethoxy)benzyl biguanide hydrochloride]",14.6 µM,545%,650%,0.87 µM,98.1%,–,–,–
"CC1CCCN(C(=N)NC(=N)Nc2cccc(C(F)(F)F)c2)C1.Cl (stereo not drawn) [Example 88, N1-(3-methyl)piperidine-N5-(3-trifluoromethyl)phenyl biguanide hydrochloride]",6.6 µM,399%,–,0.7 µM,–,327%,100%,–
"CN(C)C(=N)N=C(N)N [Metformin, reference compound]",2170 µM,–,130% and 130 (at 50 μM) %,–,6.5%,–,–,6.5 (at 100 μM ) %
"CC1CCCN(C(=N)NC(=N)Nc2ccc(C(F)(F)F)cc2)C1.Cl (stereo not drawn) [Example 81, N1-(3-methyl)piperidine-N5-(4-trifluoromethyl)phenyl biguanide hydrochloride]",7.7 µM,396%,–,1.9 µM,–,224%,100%,–
"Cc1cccc(NC(=N)NC(=N)N2CC=CC2)c1.Cl [Example 51, N1-1,2-dihydropyrrole-N5-(3-methyl)phenyl biguanide hydrochloride]",102 µM,241%,409%,3.1 µM,48.7%,–,–,–
"COc1cccc(NC(=N)NC(=N)N2CC=CCC2)c1.Cl [Example 41, N1-1,2,3,6-tetrahydropyridine-N5-(3-methoxyl)phenyl biguanide hydrochloride]",88.2 µM,125%,201%,22.4 µM,55.9%,–,–,–
"Cl.N=C(NCc1cccc(C(F)(F)F)c1)NC(=N)N1CC=CC1 [Example 12, N1-1,2-dihydropyrrole-N5-(3-trifluoromethyl)benzyl biguanide hydrochloride]",84.8 µM,97%,357%,13.8 µM,53.8%,–,–,–
"CC1CCCC(C)N1C(=N)NC(=N)Nc1ccc(Cl)c(C(F)(F)F)c1.Cl (stereo not drawn) [Example 94, N1-(2,6-dimethyl)piperidine-N5-(4-chloro, 3-trifluoromethyl)phenyl biguanide hydrochloride]",2.8 µM,643%,–,1.1 µM,–,328%,100%,–
"CC1CCCC(C)N1C(=N)NC(=N)Nc1ccc(OC(F)(F)F)c(F)c1.Cl (stereo not drawn) [Example 95, N1-(2,6-dimethyl)piperidine-N5-(3-fluoro, 4-trifluoromethoxy)phenyl biguanide]",2.9 µM,326%,–,3.1 µM,–,130%,101%,–
"Cl.N=C(NC(=N)N1CC=CCC1)Nc1ccc(OC(F)(F)F)c(Cl)c1 [Example 11, N1-1,2,3,6-tetrahydropyridine-N5-(3-chloro,4-trifluoromethoxy) phenyl biguanide hydrochloride]",3 µM,637%,–,1.4 µM,98%,–,–,–
"N=C(NC(=N)N1CC=CCC1)Nc1ccc(Br)cc1 [Example 36, N1-1,2,3,6-tetrahydropyridine-N5-(4-bromo)phenyl biguanide hydrochloride]",11.2 µM,568%,–,0.87 µM,99%,–,–,–

# More lines, main results first:
GI50 (HCT116 cells),SMILES,AMPK activation effect (%) 10 μM (AMPK),AMPK activation effect (%) 50 μM (AMPK),AC150 (AMPK),inhibition at 100 µM (HCT116 cells; 100 μM),AMPK activation effect (%) 5 μM (AMPK),inhibition at 25 µM (HCT116 cells),"Cell growth inhibition (%) at 100 μM (HCT116 cells; 100 μM, 48 hours)"
99.8 µM,"CCCNC(=N)NC(=N)N1CC=CCC1.Cl [Example 60, N1-1,2,3,6-tetrahydropyridine-N5-propyl biguanide hydrochloride]",108%,338%,12.4 µM,50.1%,–,–,–
13.9 µM,"CC1=CCN(C(=N)NC(=N)Nc2ccc(Cl)cc2)C1.Cl [Example 17, N1-(3-methyl)-1,2-dihydropyrrole-N5-(4-chloro)phenyl biguanide hydrochloride]",208%,–,4.7 µM,99.7%,–,–,–
54.8 µM,"CC1=CCN(C(=N)NC(=N)Nc2ccc(F)cc2)C1.Cl [Example 20, N1-(3-methyl)-1,2-dihydropyrrole-N5-(4-fluoro)phenyl biguanide hydrochloride]",83%,172%,38.3 µM,93.1%,–,–,–
11.3 µM,"CC1CCCCN1C(=N)NC(=N)Nc1ccc(Cl)cc1.Cl (stereo not drawn) [Example 77, N1-(2-methyl)piperidine-N5-(4-chloro)phenyl biguanide hydrochloride]",212%,–,4.5 µM,–,154%,100%,–
57 µM,"Cc1cccc(NC(=N)NC(=N)N2CC=CCC2)c1.Cl [Example 49, N1-1,2,3,6-tetrahydropyridine-N5-(3-methyl)phenyl biguanide hydrochloride]",319%,917%,1.9 µM,91.8%,–,–,–
9.3 µM,"CC1CCCN(C(=N)NC(=N)Nc2ccc(OC(F)(F)F)c(F)c2)C1.Cl (stereo not drawn) [Example 75, N1-(3-methyl)piperidine-N5-(3-fluoro, 4-trifluoromethoxy)phenyl biguanide hydrochloride]",259%,–,3.9 µM,–,133%,100%,–
18.4 µM,"Cl.N=C(NC(=N)N1CC=CCC1)Nc1ccc(Cl)cc1 [Example 35, N1-1,2,3,6-tetrahydropyridine-N5-(4-chloro)phenyl biguanide hydrochloride]",314%,–,2.4 µM,99.1%,–,–,–
19.1 µM,"Cl.N=C(NC(=N)N1CC=CC1)Nc1ccc(OC(F)(F)F)cc1 [Example 4, N1-1,2-dihydropyrrole-N5-(4-trifluoromethoxy)phenyl biguanide hydrochloride]",201%,584%,5.0 µM,99.7%,–,–,–
7.5 µM,"Cl.N=C(NC(=N)N1CC=CCC1)Nc1cccc(OC(F)(F)F)c1 [Example 30, N1-1,2,3,6-tetrahydropyridine-N5-(3-trifluoromethoxy)phenyl biguanide hydrochloride]",703%,–,0.53 µM,99.7%,–,–,–
7.9 µM,"Cl.N=C(NCc1ccc(Cl)c(C(F)(F)F)c1)NC(=N)N1CC=CCC1 [Example 58, N1-1,2,3,6-tetrahydropyridine-N5-(4-chloro, 3-trifluoromethyl)benzyl biguanide hydrochloride]",500%,–,1.8 µM,98.4%,–,–,–
> 100 µM,"Cl.N=C(N)NC(=N)N1CC=CCC1 [Example 61, N1-1,2,3,6-tetrahydropyridine biguanide hydrochloride]",123%,132%,>50 µM,10.5%,–,–,–
18 µM,"Cl.N=C(NC(=N)N1CC=CC1)Nc1ccc(C(F)(F)F)cc1 [Example 5, N1-1,2-dihydropyrrole-N5-(4-trifluoromethyl)phenyl biguanide hydrochloride]",235%,223%,2.8 µM,99.7%,–,–,–
